Reference: US8399482B2, “6-substituted isoquinolines and isoquinolinones” (Sanofi, priority 2008, dated 2013)

Legend:
Format in all cases: biochemical
[1] = target: T1, recombinant human PKG1-beta (Homo sapiens, UniProt Q13976); assay: Determination of Protein Kinase G inhibition (selectivity); settings: from IC50 values
T1 construct: PKG1-beta (full-length, with N-terminal His-tag); His-tag (N); purchased Millipore GmbH, Schwalbach, Germany
T1 sequence (Q13976 1-686 isoform Q13976-2): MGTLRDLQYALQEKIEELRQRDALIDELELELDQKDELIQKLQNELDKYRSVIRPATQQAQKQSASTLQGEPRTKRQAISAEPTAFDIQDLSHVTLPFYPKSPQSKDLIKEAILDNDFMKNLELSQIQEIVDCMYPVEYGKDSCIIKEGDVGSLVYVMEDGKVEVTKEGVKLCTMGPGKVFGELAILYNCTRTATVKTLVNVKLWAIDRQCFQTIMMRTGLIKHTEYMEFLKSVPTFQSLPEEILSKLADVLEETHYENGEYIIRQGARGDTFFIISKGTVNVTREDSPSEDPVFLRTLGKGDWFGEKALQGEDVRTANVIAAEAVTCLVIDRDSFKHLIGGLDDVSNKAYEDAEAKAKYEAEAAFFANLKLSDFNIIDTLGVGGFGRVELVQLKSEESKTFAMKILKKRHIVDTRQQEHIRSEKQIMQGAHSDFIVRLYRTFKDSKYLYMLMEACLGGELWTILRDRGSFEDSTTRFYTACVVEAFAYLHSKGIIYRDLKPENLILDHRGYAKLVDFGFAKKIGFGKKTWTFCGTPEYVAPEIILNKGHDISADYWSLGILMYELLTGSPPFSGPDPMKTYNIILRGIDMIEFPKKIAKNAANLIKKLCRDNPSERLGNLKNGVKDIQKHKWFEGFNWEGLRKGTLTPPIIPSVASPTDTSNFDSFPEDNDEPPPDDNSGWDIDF
Experimental: (§1) 2) Determination of Protein Kinase a and Protein Kinase G Inhibition
(§2) To measure PKA and PKG1-beta inhibition, IC50 values were determined according to the following protocol:
(§3) Active recombinant human PKG1-beta (full-length, with N-terminal His-tag) was purchased from Millipore GmbH, Schwalbach, Germany. Active recombinant human PKA (residues 1-351, N-terminal His-tag) was obtained from Invitrogen, Karlsruhe, Germany. The peptide substrate, Fluorescein-[…]-COOH, was obtained from JPT Peptide Technologies, Berlin, Germany. Adenosine-5′-triphosphate (ATP), bovine serum albumine (BSA), dimethylsulphoxide (DMSO), 4-(2-Hydroxyethyl)piperazine-1-ethanesulfonic acid (Hepes), Brij-35, dithiothreitol (DTT) and Pluronic F-68 were purchased from Sigma-Aldrich, Munich, Germany. Tris(hydroxymethyl)-aminomethane (Tris), magnesium chloride, NaOH, 1M HCl and EDTA were obtained from Merck Biosciences, Darmstadt, Germany. “Complete” protease inhibitor was from Roche Diagnostics, Mannheim, Germany. Test compounds were diluted to the appropriate concentrations in buffer 1 (25 mM Tris-HCl, pH 7.4, 5 mM MgCl2, 2 mM DTT, 0.02% (w/v) BSA, 0.01% Pluronic F-68 and 3% DMSO). PKG1-beta and PKA were diluted to concentrations of 150 ng/ml and 30 ng/ml, respectively, in buffer 2. The peptide substrate and ATP were diluted to concentrations of 3 μM and 120 μM, respectively, in the buffer 2. Two μl of the compound solution were mixed with 2 μl of the diluted enzyme in a 384-well small volume microtiter plate (Greiner, Bio-One, Frickenhausen, Germany), and the kinase reaction was initiated by addition of 2 μl of the solution containing peptide substrate and ATP. After 60 min incubation at 32° C., the reaction was stopped by addition of 20 μl of a solution containing 100 mM Hepes-NaOH, pH 7.4, 0.015% (v/v) Brij-35, 45 mM EDTA and 0.227% chip coating reagent 1 (Caliper Lifescience Inc, Hopkinton, Mass.). Phosphorylation of the substrate peptide was then detected on a Caliper 3000 instrument essentially as described by Pommereau et al (J. Biomol. Screening 9(5), 409-416, 2004). Separation conditions were as follows: Pressure −1.3 psi, upstream voltage −1562 V, downstream voltage −500 V, sample sip time 200 ms, Positive controls (buffer 1 instead of compound) and negative controls (buffer 1 instead of compound and buffer 2 instead of kinase solution) were run in parallel on each plate. The following products/compounds were tested in said assay by using the respective form (salt or free base) obtained as in the examples described above and the following activities were measured.

[2] = target: T2, recombinant human PKA (Homo sapiens, UniProt P17612); assay: Determination of Protein Kinase A inhibition (selectivity); settings: from IC50 values
T2 construct: recombinant human PKA (residues 1-351, N-terminal His-tag); His-tag (N); purchased Invitrogen, Karlsruhe, Germany
Experimental: as §1, §2, §3

[3] = target: T3, human recombinant ROCK II (Homo sapiens, UniProt O75116); assay: Determination of Rho kinase inhibition (ROCK II, Caliper peptide phosphorylation assay); settings: respective form (salt or free base) as obtained in the examples, 60 min at 32° C.
T3 construct: recombinant human ROCK-II residues 11-552; His6 (N); purchased Millipore GmbH, Schwalbach, Germany
T3 sequence (O75116 11-552): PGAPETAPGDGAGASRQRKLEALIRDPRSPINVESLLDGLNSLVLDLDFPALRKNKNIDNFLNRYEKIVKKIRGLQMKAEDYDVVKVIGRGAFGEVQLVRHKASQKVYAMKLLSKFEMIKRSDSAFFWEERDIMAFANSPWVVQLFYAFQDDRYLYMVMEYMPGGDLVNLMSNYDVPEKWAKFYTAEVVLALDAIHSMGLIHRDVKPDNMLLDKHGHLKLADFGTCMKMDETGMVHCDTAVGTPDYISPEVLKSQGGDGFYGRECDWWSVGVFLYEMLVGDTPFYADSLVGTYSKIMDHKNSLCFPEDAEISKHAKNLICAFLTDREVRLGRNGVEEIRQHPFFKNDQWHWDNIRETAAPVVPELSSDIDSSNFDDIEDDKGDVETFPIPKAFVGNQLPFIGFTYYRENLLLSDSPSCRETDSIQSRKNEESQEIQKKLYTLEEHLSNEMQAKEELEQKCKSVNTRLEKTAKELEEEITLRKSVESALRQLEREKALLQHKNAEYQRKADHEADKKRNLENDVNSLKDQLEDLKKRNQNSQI
Experimental: To measure Rho-kinase inhibition, IC50 values were determined according to the following protocol:
Active human recombinant ROCK II (N-terminal His6-tagged recombinant human ROCK-II residues 11-552) was purchased from Millipore GmbH, Schwalbach, Germany. The peptide substrate, Fluorescein-[…]-COOH, was obtained from JPT Peptide Technologies, Berlin, Germany. Adenosine-5′-triphosphate (ATP), bovine serum albumine (BSA), dimethylsulphoxide (DMSO), 4-(2-hydroxyethyl)piperazine-1-ethanesulfonic acid (Hepes), Brij-35, dithiothreitol (DTT) and Pluronic F-68 were purchased from Sigma-Aldrich, Munich, Germany. Tris(hydroxymethyl)-aminomethane (Tris), magnesium chloride, NaOH, 1M HCl and EDTA were obtained from Merck Biosciences, Darmstadt, Germany. “Complete” protease inhibitor was from Roche Diagnostics, Mannheim, Germany. Test compounds were diluted to the appropriate concentrations in buffer 1 (25 mM Tris-HCl, pH 7.4, 5 mM MgCl2, 2 mM DTT, 0.02% (w/v) BSA, 0.01% Pluronic F-68 and 3% DMSO). The ROCK II enzyme was diluted to a concentration of 100 ng/mL in buffer 2 (25 mM Tris-HCl, pH 7.4, 5 mM MgCl2, 2 mM DTT and 0.02% (w/v) BSA). The peptide substrate and ATP were diluted to concentrations of 3 μM and 120 μM, respectively, in the buffer 2. Two μl of the compound solution were mixed with 2 μl of the diluted enzyme in a 384-well small volume microtiter plate (Greiner, Bio-One, Frickenhausen, Germany), and the kinase reaction was initiated by addition of 2 μl of the solution containing peptide substrate and ATP. After 60 min incubation at 32° C., the reaction was stopped by addition of 20 μl of a solution containing 100 mM Hepes-NaOH, pH 7.4, 0.015% (v/v) Brij-35, 45 mM EDTA and 0.227% chip coating reagent 1 (Caliper Lifescience Inc, Hopkinton, Mass.). Phosphorylation of the substrate peptide was then detected on a Caliper 3000 instrument essentially as described by Pommereau et al (J. Biomol. Screening 2004, 9(5), 409-416). Separation conditions were as follows: Pressure −1.3 psi, upstream voltage −1562 V, downstream voltage −500 V, sample sip time 200 ms. Positive controls (buffer 1 instead of compound) and negative controls (buffer 1 instead of compound and buffer 2 instead of ROCK II) were run in parallel on each plate.
The following products/compounds were tested in said assay by using the respective form (salt or free base) obtained as in the examples described above and the following activities were measured

Row | Compound | Selectivity against PKG [1] [fold] | Selectivity against PKA [2] [fold] | IC50 [3] [nM]
1 | CCC(N)C1(COC(C)C)CCC(Oc2cc3cc[nH]c(=O)c3cc2Cl)CC1 (single isomer, unassigned) [Example 19, 6-[4-(1-Amino-propyl)-4-isopropoxymethyl-cyclohexyloxy]-7-chloro-2H-isoquinolin-1-one] | >300 | >1000 | 10 to 100
2 | CC(N)C1(C2CCC2)CCC(Oc2cc3cc[nH]c(=O)c3cc2Cl)CC1 (single isomer, unassigned) [Example 21, 6-[4-(1-Amino-ethyl)-4-cyclobutyl-cyclohexyloxy]-7-chloro-2H-isoquinolin-1-one] | >100 | >300 | 10 to 100
3 | CCC(N)C1(C2CCC2)CCC(Oc2cc3cc[nH]c(=O)c3cc2Cl)CC1 (single isomer, unassigned) [Example 22, 6-[4-(1-Amino-propyl)-4-cyclobutyl-cyclohexyloxy]-7-chloro-2H-isoquinolin-1-one] | >100 | >300 | 10 to 100
4 | CCC(N)C1(C2CCC2)CCC(Oc2cc3cc[nH]c(=O)c3cc2Cl)CC1 (single isomer, unassigned) [Example 23, 6-[4-(1-Amino-propyl)-4-cyclobutyl-cyclohexyloxy]-7-chloro-2H-isoquinolin-1-one] | >10 | >10 | 100 to 1000
5 | NC(c1ccccc1)C1(C2CCCC2)CCC(Oc2cc3cc[nH]c(=O)c3cc2Cl)CC1 (single isomer, unassigned) [Example 25, 6-[4-(Amino-phenyl-methyl)-4-cyclopentyl-cyclohexyloxy]-7-chloro-2H-isoquinolin-1-one] | >100 | >300 | 10 to 100
6 | CCC(N)C1(C)CCC(Oc2cc3cc[nH]c(=O)c3cc2Cl)CC1 (single isomer, unassigned) [Example 27, 6-[4-(1-Amino-propyl)-4-methyl-cyclohexyloxy]-7-chloro-2H-isoquinolin-1-one] | >1000 | >1000 | 10 to 100
7 | CCC(N)C1(CC(C)C)CCC(Oc2cc3cc[nH]c(=O)c3cc2Cl)CC1 (single isomer, unassigned) [Example 28, 6-[4-(1-Amino-propyl)-4-isobutyl-cyclohexyloxy]-7-chloro-2H-isoquinolin-1-one] | >10 | >10 | 100 to 1000
8 | CCC(N)C1(Cc2ccccc2)CCC(Oc2cc3cc[nH]c(=O)c3cc2Cl)CC1 (single isomer, unassigned) [Example 30, 6-[4-(1-Amino-propyl)-4-benzyl-cyclohexyloxy]-7-chloro-2H-isoquinolin-1-one] | >10 | >300 | 10 to 100
9 | CC(C)C1(C(N)c2cncs2)CCC(Oc2cc3cc[nH]c(=O)c3cc2Cl)CC1 (single isomer, unassigned) [Example 47, 6-[4-(Amino-thiazol-5-yl-methyl)-4-isopropyl-cyclohexyl-oxy]-7-chloro-2H-isoquinolin-1-one] | >300 | >300 | 10 to 100

Next, values leading:

Row | Selectivity against PKG [1] [fold] | Selectivity against PKA [2] [fold] | IC50 [3] [nM] | Compound
10 | >100 | >1000 | ≤ 10 | CCCC(N)C1(CC2CC2)CCC(Oc2cc3cc[nH]c(=O)c3cc2Cl)CC1 (single isomer, unassigned) [Example 14, 6-[4-(1-Amino-butyl)-4-cyclopropylmethyl-cyclohexyloxy]-7-chloro-2H-isoquinolin-1-one]
11 | >10 | >10 | 10 to 100 | CCCC(N)C1(CC2CC2)CCC(Oc2cc3cc[nH]c(=O)c3cc2Cl)CC1 (single isomer, unassigned) [Example 15, 6-[4-(1-Amino-butyl)-4-cyclopropylmethyl-cyclohexyloxy]-7-chloro-2H-isoquinolin-1-one]
12 | >300 | >300 | ≤ 10 | NC(C1CC1)C1(CC2CC2)CCC(Oc2cc3cc[nH]c(=O)c3cc2Cl)CC1 (single isomer, unassigned) [Example 16, 6-[4-(Amino-cyclopropyl-methyl)-4-cyclopropylmethyl-cyclohexyloxy]-7-chloro-2H-isoquinolin-1-one]
13 | >10 | >10 | 10 to 100 | NC(C1CC1)C1(CC2CC2)CCC(Oc2cc3cc[nH]c(=O)c3cc2Cl)CC1 (single isomer, unassigned) [Example 17, 6-[4-(Amino-cyclopropyl-methyl)-4-cyclopropylmethyl-cyclohexyloxy]-7-chloro-2H-isoquinolin-1-one]
14 | >300 | >300 | ≤ 10 | CC(C)C(N)C1(CC2CC2)CCC(Oc2cc3cc[nH]c(=O)c3cc2Cl)CC1 (single isomer, unassigned) [Example 18, 6-[4-(1-Amino-2-methyl-propyl)-4-cyclopropylmethyl-cyclohexyloxy]-7-chloro-2H-isoquinolin-1-one]
